This passage reports EC50 results from patent US9493506B2 (Enanta Pharmaceuticals, Inc., priority 2010, dated 2016).

Molecules are shown by their SMILES. pEC50: −log10 of the molar value.

One may read the pEC50 as the EC50 on a negative log10 scale, so that one unit is a factor of ten.

What all share (assay type): cell-based, hepatitis C virus (genotype 1a-H77)
In experiment [1] the test system is HCV replicon with a D168E mutation in a 1a-H77 background. Nature of the experiment: transient replicon assay, D168E mutation in 1a-H77 background. The conditions noted are these: Hepatitis C virus, read-out: EC50 in a transient replicon assay with a D168E mutation in a 1a-H77 background. As to the method:
(§1) Replicon cell lines can be maintained in Dulbecco's modified Eagles medium (DMEM) containing 100 IU/ml penicillin, […] streptomycin (Invitrogen), […] G418 (Invitrogen) and 10% (v/v) fetal bovine serum (FBS). Replicon-containing cells can be seeded into 96 well plates at a density of 5000 cells per well in 100 μl DMEM containing 5% FBS. The next day, the compound can be initially diluted in dimethyl sulfoxide (DMSO) to generate a 200× stock of the inhibitor in a series of 8 half-log dilutions. The dilution series can then be diluted 100-fold in the medium containing 5% FBS. One hundred microliters of medium with the inhibitor can be added to each well of the overnight cell culture plate already containing 100 μl of DMEM with 5% FBS. In assays where the protein binding effect on inhibitor potency is assessed, the medium from the overnight cell culture plates can be replaced with 200 μl DMEM containing 40% human plasma (Innovative Research) plus 5% FBS as well as compound. The cells can be grown for 4 days in tissue culture incubators. The inhibitory effects of compounds against the replicons can be determined by measuring either the level of luciferase or HCV RNA. The luciferase assay can be conducted using a Luciferase Assay System kit (Promega) following the manufacturer's instructions. Briefly, the cell culture medium is removed and wells are washed with 200 μl of phosphate-buffered saline. To each well Passive Lysis buffer (Promega, Wis.) is added and the plates are incubated for 30 min with rocking to lyse the cells. Luciferin solution (50 μl, Promega) is added, and luciferase activity is measured with a Victor II luminometer (Perkin-Elmer). To determine HCV RNA levels, RNA extractions can be performed using the CellsDirect kit (Invitrogen), and the HCV RNA copy number can be measured using the SuperScript III Platinum One-Step qRT-PCR system (Invitrogen) and primers specific to the HCV 5′ nontranslated region. Cytotoxicity can be determined by the 3-[4,5-dimethylhiazol-2-yl]-2,5-diphenyltetrazolium bromide (MTT) colorimetric assay as follows. Replicon cells is plated in 96-well plates (4000 cells per well), the next day compound dilutions are added as in the activity assay, and the cells are grown in the presence of the inhibitors for 4 days. The MTT solution is diluted in DMEM containing 5% FBS and 60 μl of the solution is added to the cells. After 4 hrs, the cells are solubilized by the addition of 30 […]μl SDS (20% in 0.02 N HCl). The plates are incubated overnight and the optical density can be measured at 570 nm. To determine compounds' EC50 and TD50, luciferase, RNA inhibition and MTT data can be analyzed using the GraphPad Prism 4 software (equation: sigmoidal dose-response—variable slope).
(§2) The 1a-H77 replicon for transient assays further differs from the replicon in the stable cell line in that it contains NS2 through NS5B in the second cistron. The 1b-N strain replicon contains NS3 through NS5B in the second cistron, with adaptive mutations E1202G in NS3 and S2204I in NS5A. Mutagenesis can be performed using the Stratagene QuikChange XL II site-directed mutagenesis kit. Mutants' sequences can be confirmed, plasmids can be linearized with Xba I restriction enzyme and used as template for in vitro transcription reactions to make mutant replicon RNA for transient transfections. In vitro transcription can be performed with the T7 Megascript kit (Ambion).
(§3) Transient replicon transfections can be performed essentially as described by Mo et al. (Antimicrob Agents Chemother (2005) 49(10):4305-4314) with slight modifications. Fifteen micrograms of template RNA can be used to electroporate 3×10^6 cells in a 200 μl volume in a 0.2 cm cuvette. The cells used for transient transfections can be Huh7 cells obtained by curing replicon-containing cells with IFN (Mo et al., supra). Electroporation can be done with a Gene Pulser II (Bio-Rad, CA) at 480V and 25 μF, using two manual pulses. […]

Experiment [2] has as its system HCV replicon with a D168V mutation in a 1a-H77 background. Description: transient replicon assay, D168V mutation in 1a-H77 background. The conditions noted are these: Hepatitis C virus, read-out: EC50 in a transient replicon assay with a D168V mutation in a 1a-H77 background. As to the method: as §1, §2, §3
A general note: Replicon systems follow genome replication, usually without infectious particles.

In experiment [3] the test system is HCV replicon with a R155K mutation in a 1a-H77 background. Nature of the experiment: transient replicon assay, R155K mutation in 1a-H77 background. The conditions noted are these: Hepatitis C virus, read-out: EC50 in a transient replicon assay with a R155K mutation in a 1a-H77 background. The method, then:
as §1, §2, §3

Take `CCc1nc2cccc(F)c2nc1O[C@@H]1C[C@H]2C(=O)N[C@]3(C(=O)NS(=O)(=O)C4CC4)C[C@H]3/C=C\CCCCC[C@H](NC(=O)c3ccon3)C(=O)N2C1` [Example 161, N-((2R,6S,13aS,14aR,16aS,Z)-14a-(cyclopropylsulfonylcarbamoyl)-2-(3-ethyl-8-fluoroquinoxalin-2-yloxy)-5,16-dioxo-1,2,3,5,6,7,8,9,10,11,13a,14,14a,15,16,16a-hexadecahydrocyclopropa[e]pyrrolo[1,2-a][1,4]diazacyclopentadecin-6-yl)isoxazole-3-carboxamide]: the pEC50 was 7.70 to 8.52 in experiment [1], 6.60 to 7.30 in experiment [2] and 8.00 to 9.00 in experiment [3].

For `CCc1nc2cccc(F)c2nc1O[C@@H]1C[C@H]2C(=O)N[C@]3(C(=O)NS(=O)(=O)C4CC4)C[C@H]3/C=C\CCCCC[C@H](NC(=O)c3noc(C)c3C)C(=O)N2C1` [Example 163, N-((2R,6S,13aS,14aR,16aS,Z)-14a-(cyclopropylsulfonylcarbamoyl)-2-(3-ethyl-8-fluoroquinoxalin-2-yloxy)-5,16-dioxo-1,2,3,5,6,7,8,9,10,11,13a,14,14a,15,16,16a-hexadecahydrocyclopropa[e]pyrrolo[1,2-a][1,4]diazacyclopentadecin-6-yl)-4,5-dimethylisoxazole isoxazole-3-carboxamide], the pEC50 is > 8.52 in experiment [1], 7.30 to 7.60 in experiment [2] and > 9.00 in experiment [3].

Consider `CCc1nc2cccc(F)c2nc1O[C@@H]1C[C@H]2C(=O)N[C@]3(C(=O)NS(=O)(=O)C4CC4)C[C@H]3/C=C\CCCCC[C@H](NC(=O)OC(C)(C)C)C(=O)N2C1` [Example 160, tert-butyl (2R,6S,13aS,14aR,16aS,Z)-14a-(cyclopropylsulfonylcarbamoyl)-2-(3-ethyl-8-fluoroquinoxalin-2-yloxy)-5,16-dioxo-1,2,3,5,6,7,8,9,10,11,13a,14,14a,15,16,16a-hexadecahydrocyclopropa[e]pyrrolo[1,2-a][1,4]diazacyclopentadecin-6-ylcarbamate], for which the pEC50 in experiment [1] was 7.30 to 7.70; in experiment [2], 6.60 to 7.30; in experiment [3], 8.00 to 9.00.

As to `Cc1cc(C(=O)N[C@H]2CCCCC/C=C\[C@@H]3C[C@@]3(C(=O)NS(=O)(=O)C3(C)CC3)NC(=O)[C@@H]3C[C@@H](Oc4nc5c(F)cccc5nc4C)CN3C2=O)no1` [Example 58, N-((2R,6S,13aS,14aR,16aS,Z)-2-(8-fluoro-3-methylquinoxalin-2-yloxy)-14a-(1-methylcyclopropylsulfonylcarbamoyl)-5,16-dioxo-1,2,3,5,6,7,8,9,10,11,13a,14,14a,15,16,16a-hexadecahydrocyclopropa[e]pyrrolo[1,2-a][1,4]diazacyclopentadecin-6-yl)-5-methylisoxazole-3-carboxamide], the results for the pEC50 in experiment [1], in experiment [2] and in experiment [3] were 7.70 to 8.52, > 7.60 and > 9.00, respectively.

For `Cc1nc2ccc(F)cc2nc1O[C@@H]1C[C@H]2C(=O)N[C@]3(C(=O)NS(=O)(=O)C4CC4)C[C@H]3/C=C\CCCCC[C@H](NC(=O)OC(C)(C)C)C(=O)N2C1` [Example 20, tert-butyl (2R,6S,13aS,14aR,16aS,Z)-14a-(cyclopropylsulfonylcarbamoyl)-2-(7-fluoro-3-methylquinoxalin-2-yloxy)-5,16-dioxo-1,2,3,5,6,7,8,9,10,11,13a,14,14a,15,16,16a-hexadecahydrocyclopropa[e]pyrrolo[1,2-a][1,4]diazacyclopentadecin-6-ylcarbamate], the pEC50 in experiment [1] is 7.70 to 8.52; in experiment [2], 7.30 to 7.60; in experiment [3], > 9.00.

For the molecule `CC(C)(C)OC(=O)N[C@H]1CCCCC/C=C\[C@@H]2C[C@@]2(C(=O)NS(=O)(=O)C2CC2)NC(=O)[C@@H]2C[C@@H](Oc3nc4cc(F)ccc4nc3C(C)(F)F)CN2C1=O` [Example 116, tert-butyl (2R,6S,13aS,14aR,16aS,Z)-14a-(cyclopropylsulfonylcarbamoyl)-2-(3-(1,1-difluoroethyl)-7-fluoroquinoxalin-2-yloxy)-5,16-dioxo-1,2,3,5,6,7,8,9,10,11,13a,14,14a,15,16,16a-hexadecahydrocyclopropa[e]pyrrolo[1,2-a][1,4]diazacyclopentadecin-6-ylcarbamate], the results for the pEC50 in experiment [1], in experiment [2] and in experiment [3] were 7.70 to 8.52, 7.30 to 7.60 and > 9.00, respectively.

Turning to `CCc1nc2ccc(F)cc2nc1O[C@@H]1C[C@H]2C(=O)N[C@]3(C(=O)NS(=O)(=O)C4CC4)C[C@H]3/C=C\CCCCC[C@H](NC(=O)c3cc(C)on3)C(=O)N2C1` [Example 124, N-((2R,6S,13aS,14aR,16aS,Z)-14a-(cyclopropylsulfonylcarbamoyl)-2-(3-ethyl-7-fluoroquinoxalin-2-yloxy)-5,16-dioxo-1,2,3,5,6,7,8,9,10,11,13a,14,14a,15,16,16a-hexadecahydrocyclopropa[e]pyrrolo[1,2-a][1,4]diazacyclopentadecin-6-yl)-5-methylisoxazole-3-carboxamide], the pEC50 in experiment [1] is 7.30 to 7.70; in experiment [2] it was 6.60 to 7.30; in experiment [3], 8.00 to 9.00.

Take `Cc1nc2cccc(F)c2nc1O[C@@H]1C[C@H]2C(=O)N[C@]3(C(=O)NS(=O)(=O)C4CC4)C[C@H]3/C=C\CCCCC[C@H](NC(=O)c3noc(C)c3C)C(=O)N2C1` [Example 57, N-((2R,6S,13aS,14aR,16aS,Z)-14a-(cyclopropylsulfonylcarbamoyl)-2-(8-fluoro-3-methylquinoxalin-2-yloxy)-5,16-dioxo-1,2,3,5,6,7,8,9,10,11,13a,14,14a,15,16,16a-hexadecahydrocyclopropa[e]pyrrolo[1,2-a][1,4]diazacyclopentadecin-6-yl)-4,5-dimethylisoxazole-3-carboxamide]: the figures for the pEC50 in experiment [1], in experiment [2] and in experiment [3] were 7.70 to 8.52, > 7.60 and > 9.00, respectively.

`Cc1cc(C(=O)N[C@H]2CCCCC/C=C\[C@@H]3C[C@@]3(C(=O)NS(=O)(=O)C3(C)CC3)NC(=O)[C@@H]3C[C@@H](Oc4nc5ccccc5nc4C(F)(F)F)CN3C2=O)no1` [Example 17, 5-methyl-N-((2R,6S,13aS,14aR,16aS,Z)-14a-(1-methylcyclopropylsulfonylcarbamoyl)-5,16-dioxo-2-(3-(trifluoromethyl)quinoxalin-2-yloxy)-1,2,3,5,6,7,8,9,10,11,13a,14,14a,15,16,16a-hexadecahydrocyclopropa[e]pyrrolo[1,2-a][1,4]diazacyclopentadecin-6-yl)isoxazole-3-carboxamide]: the pEC50 in experiment [1] was 7.70 to 8.52; in experiment [2] it was 7.30 to 7.60; in experiment [3], > 9.00.

With `CC(C)(C)OC(=O)N[C@H]1CCCCC/C=C\[C@@H]2C[C@@]2(C(=O)NS(=O)(=O)C2(C)CC2)NC(=O)[C@@H]2C[C@@H](Oc3nc4cc(F)ccc4nc3C(C)(F)F)CN2C1=O` [Example 118, tert-butyl (2R,6S,13aS,14aR,16aS,Z)-2-(3-(1,1-difluoroethyl)-7-fluoroquinoxalin-2-yloxy)-14a-(1-methylcyclopropylsulfonylcarbamoyl)-5,16-dioxo-1,2,3,5,6,7,8,9,10,11,13a,14,14a,15,16,16a-hexadecahydrocyclopropa[e]pyrrolo[1,2-a][1,4]diazacyclopentadecin-6-ylcarbamate], the results for the pEC50 in experiment [1], in experiment [2] and in experiment [3] were < 7.00, 6.00 to 6.60 and 8.00 to 9.00, respectively.
